Data taken from paper PMC4128677, “Somatostatin Analogues for Receptor Targeted Photodynamic Therapy” (PLoS ONE, 2014).
Several values for one entry are separate records, joined by “and”; a condition that tells them apart may be missing. Equal entries are not always repeated.

Assays:
[1] = Steady-state absorption and fluorescence in PBS; type: physicochemical; conditions: PBS pH = 7.4
Experimental: Steady-State Fluorescence and Absorption Measurements. The fluorescence quantum yields (ΦF) of Ce6 and conjugates in PBS pH 7.4 were determined by a relative method. Ce6 in the buffer at pH 7.4 with the quantum yield of 0.18 [24,32,33] was used as a reference.
The absorption profile of Ce6 and conjugate in PBS of concentration (0.06–1µM) was recorded in Shimadzu spectrophotometer (UV-2101 PC, Duisburg, Germany).
The fluorescence emission of photosensitizers was recorded in a Perkin-Elmer spectrofluorimeter (LS 50B, Massachussetts, USA). Light at 408 nm was used for excitation. The concentration range of compounds matched to the O.D. up to 0.1.

[2] = Photobleaching under 652 nm irradiation in PBS; type: physicochemical
Experimental: Photobleaching measurements. The loss of photosensitizer absorbance and fluorescence during irradiation was used to monitor photobleaching. Solutions of Ce6 and Ce6-conjugates were prepared in PBS pH = 7.4. The concentration of photosensitizers were adjusted so that all absorb the same number of photons at irradiated region (O.D. = 0.014 at the λirr. = 652 nm (Biolitec pharma, UK). Data was acquired in quartz cuvettes in aerobic conditions using stirring under uniform, measured irradiation at 5 mWcm^-2. At intervals, the cuvette was removed from magnetic stirrer and absorption and fluorescence emission spectrum (λexc = 405 nm) acquired. The initial absorption bleaching rate constants (kblA) for Ce6 and conjugates were evaluated as reported.

[3] = pH titration of fluorescence/absorbance (pKa); type: physicochemical; conditions: Fmax/A(λexc) versus pH, sigmoidal fit; PBS titrated with HNO3 and NaOH over pH 4.0-8.5; 0.8 µM; λexc = 408 nm
Experimental: pH measurements. The pH titration of PBS was performed with HNO3 and NaOH over pH 4.0-8.5. The final concentration of Ce6 and Ce6-conjugates in solution was 0.8 µM. The pH was measured by Sentron pH meter (Sentron Europe, NL) and the absorption and fluorescence emission (λexc = 408 nm) profiles of solutions were recorded. The inflection point of titration curves (pKa) were evaluated as reported. Briefly, the results of fluorescence titrations are presented in terms of a plot of fluorescence intensity as a function of pH with the constant concentration of the compound used throughout measurements. However, variations of fluorescence intensity are due to at least two contributions: the changes of molar extinction coefficient (differed absorbed intensity) and the changes of quantum efficiency with pH. To eliminate the influence of the molar extinction coefficient variations, the ratio of fluorescence intensity at the peak position to the absorbance at the excitation wavelength was plotted, followed by sigmoidal function fitting procedure (Figures S2-S4).

[4] = 1-Octanol/PBS partition coefficient; type: physicochemical; conditions: 1-octanol / PBS pH = 7.4; Poct/buffer = Coct/Cbuffer; stock 0.6 mM in DMSO; duplicates
Experimental: Partition coefficient. Stock solutions of Ce6 and conjugates (0.6 mM) were prepared in DMSO. Lipophilicity was characterized by their partition coefficient Poct/buffer = Coct/Cbuffer between two solvents 1-octanol (oct) and PBS, pH = 7.4 (buffer). Measurements were carried out in duplicates as described by Cunderlikova et al.

K562 sst2+ cells [5] = experiment: In vitro PDT phototoxicity, K562 sst2+ cells; type: cell-based, human
Experimental: In vitro PDT experiments were performed to determine the phototoxicity of free Ce6 and conjugates. K562 sst2+ and WT cells were seeded in L-polylysine-coated (10 µg/ml) 96-well (8×10^3/well) and 24-well (4×10^4/well) and incubated overnight in 5% CO2 at 37°C. […] After incubation, cells were washed. Fresh serum-free medium was added, and cells were illuminated with 652 nm to a dose from 0.5 to 5 J cm^−2 at 5 mW.cm^−2. Thereafter, serum-containing medium was added and cells were allowed to grow for an additional 3 days in 5% FCS medium. Toxicity was determined by: measurement of DNA contents using the bisbenzimide fluorescent dye (Hoechst 33258, Boehring Diagnostics, CA, USA) and measurement of mitochondrial dehydrogenase cleavage of WST-1 reagent (Roche Diagnostics, Germany), [39]. Experiments were done in triplicates.

K562 sst2+ cells [6] = experiment: Cellular uptake in K562 sst2+ and WT cells; type: cell-based, human; conditions: 1 µM
Experimental: Stock solutions of Ce6 and Ce6-conjugates (1 mM) were dissolved in 80% DMSO and were stored in the dark at −20°C. Before experiments, the solutions were diluted to a concentration of 0.1 mM in 20% DMSO. K562 sst2+ or WT (3×10^5) in 1 ml RPMI 1640 serum-free or supplemented with 5% FCS were incubated with Ce6 or with conjugate (1 µM) for 15 min to 24 h in the dark at 37°C. After incubation, the cells were centrifuged, cell pellet dissolved in 2% SDS and fluorescence emission spectra (λexc = 405 nm) recorded. Photosensitizer concentrations were calculated in triplicate according to a calibration curve generated by mixing a known concentration of photosensitizer with a lysated control samples.

[7] = test system: sst2+ AR42J acinar pancreas tumors; experiment: Intra-vital fluorescence pharmacokinetics in AR42J tumors in rat skin-fold chambers; type: in vivo; conditions: i.v. tail vein, conjugate 1 0.67 mg/kg, Ce6 0.2 mg/kg, rat skin-fold chamber
Experimental: Intra-vital confocal fluorescence imaging was performed in single sided rat skin-fold chambers transplanted with sst2 ^+ AR42J acinar pancreas tumors as described previously. The study was approved by the animal experimental committee of the Erasmus MC. Chambers were prepared in 12 animals divided into three groups. […] The first group of animals received Ce6 at a dose of 0.2 mg/kg, the second group received conjugate 1 at a dose of 0.67 mg/kg such that the same number of Ce6 molecules were administered to each animal; (equivalent Ce6 concentration of 2.011×10^−4 M).
Animals were anesthetized using isoflurane/O2 and autofluorescence images were recorded. Drug was administered intravenously into the tail vein. Fluorescence images were acquired 5 and 20 minutes after conjugate administration after which the animal was allowed to recover. Subsequent fluorescence images were acquired under anesthesia at 1, 4, 24, 72 and 96 hrs. […] Confocal fluorescence imaging (LSM 510 Meta (Zeiss, Germany)) was performed using a 40× objective. The distribution of Ce6 fluorescence was mapped under 514 nm laser excitation in the lambda mode (539–753 nm). […] Spectra acquired from individual pixels were analyzed as a linear combination of basis spectra and fitted using a singular value decomposition algorithm. The fluorescence of Ce6 and conjugate 1 was determined in ROIs. […]

[8] = PBS pH = 7.4; used as reference; cited from earlier work
Text: The fluorescence quantum yield of Ce6 in neutral pH was similar to conjugates 1 (ΦF = 0.18 for Ce6 and ΦF = 0.20 for 1).

[9] = PBS pH = 7.4; used as reference; cited from earlier work; remark: listed apart in the source

## C=Cc1c(C)c2cc3nc(c(CC(=O)O)c4[nH]c(cc5nc(cc1[nH]2)C(C)=C5CC)c(C)c4C(=O)O)[C@@H](CCC(=O)O)[C@@H]3C [Ce6, Chlorin e6]
[1]
  full width at half maximum of the Q(0,0) absorption band: 21 nm
  full width at half maximum of the Soret absorption band: 27 nm
  maximum of fluorescence band: 661 nm
  maximum of the Q(0,0) absorption band: 655 nm
  maximum of the Soret absorption band: 402 nm
[2]; PBS pH = 7.4, 652 nm irradiation at 5 mWcm^-2, O.D. = 0.014 at 652 nm, aerobic, stirring
  kblA, rate constant of initial absorption bleaching: 25.69 x 10^−2 J^−1 cm^2
[2]; PBS, 652 nm irradiation, fluorescence bleaching
  photostability: low photostability
[3]
  pKa, inflection point of pH titration curve: 6.71 and 6.71±0.0947
[4]
  LogP, logarithm of partition coefficient: 0.005±0.05
K562 sst2+ cells [5]; K562 sst2+, 1 µM, 4 h incubation, serum-free, 652 nm, 5 J.cm^−2, read after 3 days
  cell survival after PDT compared to control cells: almost complete inhibition of cell viability
K562 sst2+ cells [5]; K562 sst2+, 1 µM, 4 h incubation, 652 nm
  light dose from which phototoxicity was seen: 0.5 J.cm^−2
K562 sst2+ cells [5]; dark toxicity, K562 cells
  effect on cell growth of photosensitizer alone in the absence of light: no effect on cell growth
K562 sst2+ cells [6]; serum-free and 5% FCS medium, fluorescence of lysate, λexc = 405 nm
  uptake in sst2+ cells compared to WT cells (factor): same result as for conjugate 2
K562 sst2+ cells [6]; 4 h incubation, K562 sst2+
  concentration taken up by sst2+ cells: 90 nM
[7]
  time of fluorescence peak in tumor tissue: gradually increased over the first 3 days
[8]
  ΦF, fluorescence quantum yield (reference value): 0.18
[9]
  ΦΔ, singlet oxygen quantum yield (reference value): 0.64 and 0.64±0.08
